From patent publication US12703706B2, “Anthelmintic compounds comprising a thienopyridine structure” (Intervet Inc., priority 2020, dated 2026)

The compounds below were run against human Maxi K channel (BK channel), KCNMA1 (KCa1.1) and beta1 (KCNMB1) subunits (Homo sapiens, UniProt Q12791).
human Maxi K channel (BK channel), KCNMA1 (KCa1.1) and beta1 (KCNMB1) subunits, sequence (Q12791 1-1178 isoform Q12791-5): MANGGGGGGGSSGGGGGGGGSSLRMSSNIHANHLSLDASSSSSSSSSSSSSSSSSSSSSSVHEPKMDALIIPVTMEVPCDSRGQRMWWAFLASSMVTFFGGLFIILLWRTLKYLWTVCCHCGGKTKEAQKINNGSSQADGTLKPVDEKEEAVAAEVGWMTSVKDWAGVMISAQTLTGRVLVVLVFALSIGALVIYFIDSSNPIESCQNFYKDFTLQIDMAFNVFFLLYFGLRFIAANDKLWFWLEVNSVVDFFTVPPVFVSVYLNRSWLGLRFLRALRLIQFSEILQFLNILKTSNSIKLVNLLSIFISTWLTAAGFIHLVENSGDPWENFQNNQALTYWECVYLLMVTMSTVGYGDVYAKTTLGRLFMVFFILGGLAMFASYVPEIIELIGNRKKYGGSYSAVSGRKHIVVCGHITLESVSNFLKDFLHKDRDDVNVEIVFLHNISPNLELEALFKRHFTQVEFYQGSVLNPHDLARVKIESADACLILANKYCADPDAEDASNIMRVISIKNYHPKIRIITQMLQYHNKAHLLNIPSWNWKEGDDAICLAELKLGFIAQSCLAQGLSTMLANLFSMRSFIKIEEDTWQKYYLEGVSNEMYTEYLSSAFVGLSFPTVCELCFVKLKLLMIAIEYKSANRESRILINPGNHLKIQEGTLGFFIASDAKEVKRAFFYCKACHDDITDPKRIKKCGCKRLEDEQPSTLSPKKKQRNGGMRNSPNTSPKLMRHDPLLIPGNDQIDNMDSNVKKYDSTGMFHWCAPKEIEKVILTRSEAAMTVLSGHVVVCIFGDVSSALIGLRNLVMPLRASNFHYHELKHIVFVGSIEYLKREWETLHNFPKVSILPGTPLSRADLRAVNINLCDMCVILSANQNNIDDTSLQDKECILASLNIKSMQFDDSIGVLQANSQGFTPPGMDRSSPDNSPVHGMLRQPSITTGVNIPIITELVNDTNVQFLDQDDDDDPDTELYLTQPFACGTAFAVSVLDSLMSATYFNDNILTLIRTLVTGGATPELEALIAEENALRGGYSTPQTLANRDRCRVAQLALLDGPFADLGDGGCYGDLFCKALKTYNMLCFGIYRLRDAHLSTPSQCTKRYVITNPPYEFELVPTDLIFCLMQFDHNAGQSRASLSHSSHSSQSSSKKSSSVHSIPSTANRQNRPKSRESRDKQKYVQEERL
human Maxi K channel (BK channel), KCNMA1 (KCa1.1) and beta1 (KCNMB1) subunits, sequence (Q16558 whole entry partner): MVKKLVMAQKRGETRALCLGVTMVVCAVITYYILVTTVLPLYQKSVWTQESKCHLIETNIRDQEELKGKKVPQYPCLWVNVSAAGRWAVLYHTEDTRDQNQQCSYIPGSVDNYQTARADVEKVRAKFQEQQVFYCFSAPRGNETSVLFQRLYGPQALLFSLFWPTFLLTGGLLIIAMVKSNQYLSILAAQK
Experimental: In Vitro Assay: Agonistic Activity at the Human Maxi K Channel (BK Channel)
A CHO K1 cell line was stably transfected with the KCNMA1 (KCa1.1, U11058) and betal (KCNMB1) subunits of the human Maxi K channel (Ponte et al, Molecular Pharmacology 2012, 81(4), 567-577).
Cells were seeded in microtiter plates (black 384-well MTP, clear bottom) in a concentration of 20,000 cells/well in 25 μl medium and cultured for 20 to 24 hours at 37° C. and 5% CO2. After incubation, 25 μl of FMP-dye Blue-Tyrode's was added to each well and incubated at room temperature for 30 min. Ten minutes after addition of 12.5 μl compound solution, the plates are transferred to the FLIPR for measurement.
For the membrane potential measurements, plates were placed in the FLIPR Penta (Molecular Devices). The baseline measurement of the fluorescence was stared for 20 sec (Exc. 510-545 nm, Emm. 565-625 nm). Potential channel opening measurement was started by addition of 25 μl KCl-Tyrode (final assay concentration of the KCl-Tyrode: 70 mM KCl, 2 mM CaCl2, 1 mM MgCl2, 0.8 mM NaH2PO4, 5 mM Glucose, 28 mM Hepes, pH 7.4, including the voltage sensitive dye). The complete measurement takes 150 s.
EC50 values were determined in triplicate utilizing compound dilution series. The data were determined at least in two independent tests. The data were proceeded by using the ActivityBase XE Runner software (IDBS) for curve fitting and calculation of the half-maximal effective concentration.

Row | SMILES | EC50
1 | O=C(N[C@H]1CCCc2ccccc21)c1cnc2c(-c3cc(Cl)cc(Cl)c3)csc2c1N1CCOCC1 [Compound 32] | > 30 µM
2 | Cc1sc2c(N(C)C)c(C(=O)N[C@H]3CCc4ccccc43)cnc2c1-c1cc(Cl)cc(Cl)c1 [Compound 33] | > 30 µM
3 | Cc1sc2c(N(C)C)c(C(=O)N[C@H]3CCc4ccccc43)cnc2c1-c1cccc(Cl)c1Cl [Compound 34] | > 30 µM
4 | Cc1sc2c(N(C)C)c(C(=O)N[C@H]3CCCc4ccccc43)cnc2c1-c1cccc(Cl)c1Cl [Compound 35] | > 30 µM
5 | Cc1sc2c(N(C)C)c(C(=O)Nc3cccc4ccccc34)cnc2c1-c1cccc(Cl)c1Cl [Compound 37] | > 30 µM
6 | Cc1sc2c(N(C)C)c(C(=O)N[C@H]3CCCc4ccccc43)cnc2c1-c1cc(Cl)cc(Cl)c1 [Compound 38] | > 30 µM
7 | O=C(N[C@H]1CCc2ccccc21)c1cnc2c(-c3cccc(Cl)c3Cl)csc2c1N1CC(F)(F)C1 [Compound 39] | > 30 µM
8 | O=C(N[C@H]1CCOc2ccccc21)c1cnc2c(-c3cc(F)cc(F)c3F)csc2c1N1CC(F)(F)C1 [Compound 40] | > 30 µM
9 | O=C(N[C@H]1CCc2ccccc21)c1cnc2c(-c3cc(F)cc(F)c3F)csc2c1N1CC(F)(F)C1 [Compound 41] | > 30 µM
10 | O=C(N[C@H]1CCOc2ccccc21)c1cnc2c(-c3cccc(C(F)(F)F)c3)csc2c1N1CCOCC1 [Compound 42] | > 30 µM
11 | COc1cccc(-c2csc3c(N4CCOCC4)c(C(=O)N[C@H]4CCOc5ccccc54)cnc23)c1 [Compound 43] | > 30 µM
12 | Cc1cccc(-c2csc3c(N4CCOCC4)c(C(=O)N[C@H]4CCOc5ccccc54)cnc23)c1C [Compound 44] | > 30 µM
13 | O=C(N[C@H]1CCOc2ccccc21)c1cnc2c(-c3cc(F)cc(F)c3)csc2c1N1CCOCC1 [Compound 45] | > 30 µM
14 | CN(C)c1c(C(=O)N[C@H]2CCOc3ccccc32)cnc2c(-c3cccc(F)c3F)csc12 [Compound 46] | > 30 µM
15 | CN(C)c1c(C(=O)N[C@H]2CCOc3ccccc32)cnc2c(-c3cccc(C(F)(F)F)c3)csc12 [Compound 47] | > 30 µM
16 | COc1cccc(-c2csc3c(N(C)C)c(C(=O)N[C@H]4CCOc5ccccc54)cnc23)c1 [Compound 48] | > 30 µM
17 | O=C(Nc1cccc2ccccc12)c1cnc2c(-c3cc(Cl)cc(Cl)c3)csc2c1N1CCOCC1 [Compound 49] | > 30 µM
18 | CN(C)c1c(C(=O)Nc2cccc3ccccc23)cnc2c(-c3cc(Cl)cc(Cl)c3)csc12 [Compound 50] | > 30 µM
19 | CN(C)c1c(C(=O)N[C@H]2CCOc3ccccc32)cnc2c(-c3cc(F)cc(F)c3)csc12 [Compound 51] | > 30 µM
20 | O=C1CCN(c2c(C(=O)N[C@H]3CCOc4ccccc43)cnc3c(-c4cc(Cl)cc(Cl)c4)csc23)CC1 [Compound 52] | > 30 µM
21 | Cc1sc2c(N(C)C)c(C(=O)Nc3cccc4ccccc34)cnc2c1-c1cc(Cl)cc(Cl)c1 [Compound 54] | > 30 µM
22 | Cc1sc2c(N3CC(F)(F)C3)c(C(=O)N[C@H]3CCCc4ccccc43)cnc2c1-c1cccc(Cl)c1Cl [Compound 55] | > 30 µM
23 | Cc1sc2c(N3CC(F)(F)C3)c(C(=O)N[C@H]3CCc4ccccc43)cnc2c1-c1cccc(Cl)c1Cl [Compound 57] | > 30 µM
24 | Cc1sc2c(N3CC(F)(F)C3)c(C(=O)N[C@H]3CCCc4ccccc43)cnc2c1-c1cc(Cl)cc(Cl)c1 [Compound 58] | > 30 µM

Row | SMILES | EC50
25 | Cc1sc2c(N3CC(F)(F)C3)c(C(=O)N[C@H]3CCOc4ccccc43)cnc2c1-c1cc(Cl)cc(Cl)c1 [Compound 59] | > 30 µM
26 | Cc1sc2c(N3CC(F)(F)C3)c(C(=O)N[C@H]3CCc4ccccc43)cnc2c1-c1cc(Cl)cc(Cl)c1 [Compound 60] | > 30 µM
27 | Cc1sc2c(N3CC(F)C3)c(C(=O)N[C@H]3CCCc4ccccc43)cnc2c1-c1cccc(Cl)c1Cl [Compound 61] | > 30 µM
28 | Cc1sc2c(N3CC(F)C3)c(C(=O)N[C@H]3CCc4ccccc43)cnc2c1-c1cccc(Cl)c1Cl [Compound 63] | > 30 µM
29 | Cc1sc2c(N3CC(F)C3)c(C(=O)N[C@H]3CCCc4ccccc43)cnc2c1-c1cc(Cl)cc(Cl)c1 [Compound 64] | > 30 µM
30 | Cc1sc2c(N3CC(F)C3)c(C(=O)N[C@H]3CCc4ccccc43)cnc2c1-c1cc(Cl)cc(Cl)c1 [Compound 66] | > 30 µM
31 | Cc1sc2c(N3CCOCC3)c(C(=O)N[C@H]3CCCc4ccccc43)cnc2c1-c1cc(Cl)cc(Cl)c1 [Compound 67] | > 30 µM
32 | Cc1sc2c(N3CCOCC3)c(C(=O)N[C@H]3CCc4ccccc43)cnc2c1-c1cc(Cl)cc(Cl)c1 [Compound 69] | > 30 µM
33 | Cc1sc2c(N3CCOCC3)c(C(=O)Nc3cccc4ccccc34)cnc2c1-c1cc(Cl)cc(Cl)c1 [Compound 70] | > 30 µM
34 | Cc1sc2c(N3CCOCC3)c(C(=O)N[C@H]3CCCc4ccccc43)cnc2c1-c1cccc(Cl)c1Cl [Compound 71] | > 30 µM
35 | Cc1sc2c(N3CCOCC3)c(C(=O)N[C@H]3CCc4ccccc43)cnc2c1-c1cccc(Cl)c1Cl [Compound 73] | > 30 µM
36 | Cc1sc2c(N3CCOCC3)c(C(=O)Nc3cccc4ccccc34)cnc2c1-c1cccc(Cl)c1Cl [Compound 74] | > 30 µM
37 | Cc1cccc(-c2csc3c(N(C)C)c(C(=O)N[C@H]4CCOc5ccccc54)cnc23)c1C [Compound 75] | > 30 µM
38 | O=C(N[C@H]1CCOc2ccccc21)c1cnc2c(-c3cc(Cl)cc(Cl)c3)csc2c1N1CC(F)(F)C1 [Compound 76] | > 30 µM
39 | O=C(N[C@H]1CCc2ccccc21)c1cnc2c(-c3cc(Cl)cc(Cl)c3)csc2c1N1CC(F)(F)C1 [Compound 77] | > 30 µM
40 | CN(C)c1c(C(=O)NC2COc3ccccc32)cnc2c(-c3cccc(Cl)c3Cl)csc12 (centres unmarked) [Compound 78] | > 30 µM
41 | O=C(NC1COc2ccccc21)c1cnc2c(-c3cccc(Cl)c3Cl)csc2c1N1CCOCC1 (centres unmarked) [Compound 79] | > 30 µM
42 | O=C(NC1COc2ccccc21)c1cnc2c(-c3cc(Cl)cc(Cl)c3)csc2c1N1CCOCC1 (centres unmarked) [Compound 81] | > 30 µM
43 | COCCNc1c(C(=O)N[C@H]2CCOc3ccccc32)cnc2c(-c3cc(F)cc(F)c3F)csc12 [Compound 82] | > 30 µM
44 | O=C(N[C@H]1CCOc2ccccc21)c1cnc2c(-c3cc(F)cc(F)c3)csc2c1N1CCC1 [Compound 83] | > 30 µM
45 | O=C(N[C@H]1CCOc2ccccc21)c1cnc2c(-c3cc(F)cc(F)c3F)csc2c1N1CCC1 [Compound 84] | > 30 µM
46 | O=C(N[C@H]1CCOc2ccccc21)c1cnc2c(-c3cccc(F)c3F)csc2c1N1CCC1 [Compound 85] | > 30 µM
47 | O=C(N[C@H]1CCOc2ccccc21)c1cnc2c(-c3cc(F)cc(F)c3)csc2c1NC1CC1 [Compound 86] | > 30 µM
48 | O=C(N[C@H]1CCOc2ccccc21)c1cnc2c(-c3cccc(F)c3F)csc2c1NC1CC1 [Compound 87] | > 30 µM

Row | SMILES | EC50
49 | O=C(N[C@H]1CCOc2ccccc21)c1cnc2c(-c3cc(F)cc(F)c3F)csc2c1NC1CC1 [Compound 88] | > 30 µM
50 | O=C(N[C@H]1CCOc2ccccc21)c1cnc2c(-c3cccc(C(F)(F)F)c3)csc2c1NC1CC1 [Compound 89] | > 30 µM
51 | O=C(N[C@H]1CCOc2ccccc21)c1cnc2c(-c3cccc(C(F)(F)F)c3)csc2c1N1CCC1 [Compound 90] | > 30 µM
52 | O=C(N[C@H]1CCOc2ccccc21)c1cnc2c(-c3cccc(F)c3F)csc2c1N1CC(F)C1 [Compound 91] | > 30 µM
53 | O=C(N[C@H]1CCOc2ccccc21)c1cnc2c(-c3cc(F)cc(F)c3)csc2c1N1CC(F)C1 [Compound 92] | > 30 µM
54 | O=C(N[C@H]1CCOc2ccccc21)c1cnc2c(-c3cccc(C(F)(F)F)c3)csc2c1N1CC(F)C1 [Compound 93] | > 30 µM
55 | O=C(N[C@H]1CCOc2ccccc21)c1cnc2c(-c3cc(F)cc(F)c3F)csc2c1NCCO [Compound 94] | > 30 µM
56 | CN(CCO)c1c(C(=O)N[C@H]2CCOc3ccccc32)cnc2c(-c3cc(F)cc(F)c3F)csc12 [Compound 95] | > 30 µM
57 | CN(C)c1c(C(=O)NC2COc3ccccc32)cnc2c(-c3cc(Cl)cc(Cl)c3)csc12 (centres unmarked) [Compound 96] | > 30 µM
58 | CN(C)c1c(C(=O)N[C@H]2CCOc3ccccc32)cnc2c(-c3cccc(OC(F)(F)F)c3)csc12 [Compound 97] | > 30 µM
59 | CN(C)c1cccc(-c2csc3c(N(C)C)c(C(=O)N[C@H]4CCOc5ccccc54)cnc23)c1 [Compound 98] | > 30 µM
60 | O=C(N[C@H]1CCc2ccccc21)c1cnc2c(-c3cccc(Cl)c3Cl)csc2c1N1CC(F)C1 [Compound 99] | > 30 µM
61 | O=C(N[C@@H]1COc2ccccc21)c1cnc2c(-c3cc(Cl)cc(Cl)c3)csc2c1N1CCOCC1 [Compound 100] | > 30 µM
62 | O=C(N[C@H]1CCOc2ccccc21)c1cnc2c(-c3cc(Cl)cc(Cl)c3)csc2c1N1CC(F)C1 [Compound 101] | > 30 µM
63 | Cc1sc2c(N(C)C)c(C(=O)N[C@H]3CCOc4ccccc43)cnc2c1-c1cc(F)cc(F)c1 [Compound 103] | > 30 µM
64 | Cc1sc2c(N(C)C)c(C(=O)N[C@H]3CCOc4ccccc43)cnc2c1-c1cccc(C(F)(F)F)c1 [Compound 104] | > 30 µM
65 | Cc1sc2c(N(C)C)c(C(=O)N[C@H]3CCOc4ccccc43)cnc2c1-c1cccc(OC(F)(F)F)c1 [Compound 105] | > 30 µM
66 | Cc1sc2c(N3CCOCC3)c(C(=O)N[C@H]3CCOc4ccccc43)cnc2c1-c1cc(F)cc(F)c1F [Compound 106] | > 30 µM
67 | Cc1sc2c(N3CCOCC3)c(C(=O)N[C@H]3CCOc4ccccc43)cnc2c1-c1cc(F)cc(F)c1 [Compound 107] | > 30 µM
68 | Cc1sc2c(N3CCOCC3)c(C(=O)N[C@H]3CCOc4ccccc43)cnc2c1-c1cccc(C(F)(F)F)c1 [Compound 108] | > 30 µM
69 | Cc1sc2c(N3CCOCC3)c(C(=O)N[C@H]3CCOc4ccccc43)cnc2c1-c1cccc(OC(F)(F)F)c1 [Compound 109] | > 30 µM
70 | Cc1sc2c(N3CCOCC3)c(C(=O)N[C@H]3CCc4ccccc43)cnc2c1-c1cc(F)cc(F)c1F [Compound 110] | > 30 µM
71 | Cc1sc2c(N3CCOCC3)c(C(=O)N[C@H]3CCc4ccccc43)cnc2c1-c1cc(F)cc(F)c1 [Compound 111] | > 30 µM
